According to ChEMBL document CHEMBL1146628, “Identification of TNF-alpha inhibitors from a split-pool library based on a tyrosine-proline peptidomimetic scaffold” (Bioorg Med Chem Lett, 2003):

Key:
Details in all cases: Homo sapiens
[1] = tested on: A549; assay: Inhibitory concentration (solid phase) against TNF-alpha induced apoptosis of A549 cells; type: functional, cell-based
[2] = tested on: A549; assay: Inhibitory concentration (resynthesized pure material) against TNF-alpha induced apoptosis of A549 cells; type: functional, cell-based
[3] = tested on: A549; assay: Inhibitory concentration (resynthesized pure material) against TNF-alpha induced apoptosis of A549 cells at 20 uM; type: functional

Compound | IC50 [1] [µM] | IC50 [2] [µM] | inhibition at 20 µM [3] [%]
CCCCCN(CCCCC)C(=O)[C@@H]1C[C@H](Oc2ccc(C[C@H](NC(=O)Cc3ccccc3)C(N)=O)cc2)CN1C(=O)c1cnc2ccccc2c1 | 11.1 | 8.1 | –
CCCCCN(CCCCC)C(=O)[C@@H]1C[C@H](Oc2ccc(C[C@H](NC(=O)c3cnc4ccccc4c3)C(N)=O)cc2)CN1C(=O)c1cnc2ccccc2c1 | 15.4 | 12.9 | –
CCCCCN(CCCCC)C(=O)[C@@H]1C[C@H](Oc2ccc(C[C@H](NC(=O)C(CC)CC)C(N)=O)cc2)CN1C(=O)c1cnc2ccccc2c1 | – | 10.1 | –
CCCCCN(CCCCC)C(=O)[C@@H]1C[C@H](Oc2ccc(C[C@H](NC(=O)CC)C(N)=O)cc2)CN1C(=O)c1cnc2ccccc2c1 | – | – | 35
